For 16 compounds, Ki and IC50 results are on record in patent US9079866B2, “Flap modulators” (JANSSEN PHARMACEUTICA NV, priority 2013, dated 2015).

The target in one assay is human FLAP (Homo sapiens (Human), UniProt P20292). Put plainly: FLAP binding assay (HTRF format). Conditions: wild type FLAP, HTRF format. The method in brief:
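Samples were run in duplicate on each of two plates and the plate results averaged. Read-out is the HTRF signal ratio.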

The test system of assay [1] is leukotriene pathway in human whole blood (LTB4 levels). Put plainly: Human whole blood assay (A23187-stimulated LTB4). The assay is classed as cell-based. Conditions: Homo sapiens, human whole blood diluted 1:1, A23187-stimulated; read-out: LTB4 IC50 1:1. An outline of the steps: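 Blood (heparin) diluted 1:1 RPMI; compound pre-incubation 15 min, 37° Celsius; A23187 7 μg/mL, 30 min, 37° Celsius; plasma LTB4 by commercial kit. IC50 via 4-parameter equation.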

Sequence of human FLAP (P20292 whole entry): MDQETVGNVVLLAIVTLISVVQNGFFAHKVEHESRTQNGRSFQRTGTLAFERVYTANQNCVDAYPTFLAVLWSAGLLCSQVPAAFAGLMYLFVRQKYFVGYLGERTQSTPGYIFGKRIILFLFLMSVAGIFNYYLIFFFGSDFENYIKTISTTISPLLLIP

A word on the Ki: it is a measure of affinity in units of concentration, obtained from inhibition or displacement. Read a low Ki as a stronger hold on the target. Broadly, the IC50 is the point on the concentration scale where inhibition reaches its midpoint. `Nc1cnc(-c2ccc(-c3ccccc3-c3cnc(N)cn3)cc2F)cn1` [Example 840, 5,5′-(3′-Fluorobiphenyl-2,4′-diyl)dipyrazin-2-amine] returned a Ki at human FLAP of 12.7 nM. For the same compound, the IC50 in assay [1] was found to be 99.6 nM.
`Nc1cnc(-c2ccccc2-c2ccc(-c3cnc(N)nc3)c(F)c2)cn1` [Example 841, 5-[2′-(5-Aminopyrazin-2-yl)-3-fluorobiphenyl-4-yl]pyrimidin-2-amine]: the Ki on human FLAP was 146 nM. The IC50 in assay [1] is 370 nM.
For `Nc1cnc(-c2ccc(-c3ccccc3-c3cncc(N)n3)cc2F)cn1` [Example 842, 5-[2′-(6-Aminopyrazin-2-yl)-3-fluorobiphenyl-4-yl]pyrazin-2-amine], in that order: 5.3 nM and 61 nM.
For `Nc1cnc(-c2ccc(-c3ccccc3-c3cnc(N)nc3)cc2F)cn1` [Example 843, 5-[4′-(5-Aminopyrazin-2-yl)-3′-fluorobiphenyl-2-yl]pyrimidin-2-amine], in that order: 15.6 nM and 44.3 nM.
For `Nc1ncc(-c2ccc(-c3ccccc3-c3cnc(N)nc3)cc2F)cn1` [Example 844, 5,5′-(3′-Fluorobiphenyl-2,4′-diyl)dipyrimidin-2-amine], in that order: 509 nM and 907 nM.
For `COc1ncc(-c2ccccc2-c2ccc(-c3cnc(N)cn3)c(F)c2)cn1` [Example 846, 5-[3-Fluoro-2′-(2-methoxypyrimidin-5-yl)biphenyl-4-yl]pyrazin-2-amine], at human FLAP, the affinity, expressed as Ki, was 10.5 nM. In assay [1], the IC50 came to 41.8 nM.
Regarding `Cn1cc(-c2ccccc2-c2ccc(-c3cnc(N)cn3)c(F)c2)cn1` [Example 847, 5-[3-Fluoro-2′-(1-methyl-1H-pyrazol-4-yl)biphenyl-4-yl]pyrazin-2-amine], the Ki on human FLAP turned out to be 8.1 nM. Also, the IC50 in assay [1] is 99.1 nM.
`Nc1cnc(-c2ccc(-c3ccccc3-c3cncnc3)cc2F)cn1` [Example 848, 5-(3-Fluoro-2′-pyrimidin-5-ylbiphenyl-4-yl)pyrazin-2-amine] returned an inhibition constant (Ki) on human FLAP of 96.8 nM. For the same compound, the IC50 in assay [1] is 322 nM.
For `N#Cc1ncc(-c2ccccc2-c2ccc(-c3cnc(N)cn3)c(F)c2)cn1` [Example 849, 5-[4′-(5-Aminopyrazin-2-yl)-3′-fluorobiphenyl-2-yl]pyrimidine-2-carbonitrile], in that order: 35.6 nM and over 1000 nM.
Compound `Nc1cnc(-c2ccc(-c3ccccc3-c3cnc(N4CCOCC4)nc3)cc2F)cn1` [Example 850, 5-[3-Fluoro-2′-(2-morpholin-4-ylpyrimidin-5-yl)biphenyl-4-yl]pyrazin-2-amine] displayed a Ki at human FLAP of 37.7 nM. For the same compound, the IC50 in assay [1] was found to be 195 nM.
On to `CC(C)(O)Cn1cc(-c2ccccc2-c2ccc(-c3cnc(N)cn3)c(F)c2)cn1` [Example 851, 1-{4-[4′-(5-Aminopyrazin-2-yl)-3′-fluorobiphenyl-2-yl]-1H-pyrazol-1-yl}-2-methylpropan-2-ol], for which the Ki on human FLAP turned out to be 32.6 nM. Besides, the IC50 in assay [1] came out at 359 nM.
For `Nc1cnc(-c2ccc(-c3ccc(C(F)(F)F)cc3C3=CCNCC3)cc2F)cn1` [Example 852, 5-[3-Fluoro-2′-(1,2,3,6-tetrahydropyridin-4-yl)-4′-(trifluoromethyl)biphenyl-4-yl]pyrazin-2-amine], in that order: 118 nM and 1350 nM.
In turn, `Nc1cnc(-c2ccc(-c3ccc(C(F)(F)F)cc3-c3cnc(N)nc3)cc2F)cn1` [Example 853, 5-[4′-(5-Aminopyrazin-2-yl)-3′-fluoro-4-(trifluoromethyl)biphenyl-2-yl]pyrimidin-2-amine] gave a Ki at human FLAP of 4.7 nM. Besides, in assay [1], the IC50 was 45.6 nM.
On human FLAP, `Nc1cnc(-c2ccc(-c3ccccc3N3CCCS3(=O)=O)cc2F)cn1` [Example 856, 5-[2′-(1,1-Dioxidoisothiazolidin-2-yl)-3-fluorobiphenyl-4-yl]pyrazin-2-amine] returned a Ki of 60.5 nM. In assay [1], the IC50 was found to be 83.9 nM.
For `Nc1cnc(-c2ccc(-c3ccccc3N3CCCCS3(=O)=O)cc2F)cn1` [Example 857, 5-[2′-(1,1-Dioxido-1,2-thiazinan-2-yl)-3-fluorobiphenyl-4-yl]pyrazin-2-amine], in that order: 28 nM and 205 nM.
Take `Nc1ncc(-c2ccc(-c3ccccc3N3CCCS3(=O)=O)cc2F)cn1` [Example 858, 5-[2′-(1,1-Dioxidoisothiazolidin-2-yl)-3-fluorobiphenyl-4-yl]pyrimidin-2-amine]: on human FLAP, the Ki worked out at 210 nM. In assay [1], the IC50 came out at 370 nM.
